Reference: PMC9834611 (Pharmacology Research & Perspectives, 2023)
Like-named read-outs stand apart in the source and are kept apart here.

Key:
[1] = in vitro; conditions: female, CD-1, mouse, liver microsomes
[2] = Canine PBPK model Monte Carlo simulation and model parameters; conditions: dog model
[3] = test system: human ABCB1; parameters: method as in PMID 17142983; conditions: dog and human models, cited from earlier work
[4] = test system: ABCB1; test: ABCB1 transport Vmax optimized to in vivo canine PK data; conditions: dog and human models
Text: The transfer of drugs at the BBB is unique as the mass transfer out of the vascular space surrounding the brain tissue is hindered by a permeability barrier. […] Coupling the ABCB1 transport equations as expressed above with permeability‐limited modeling equations from Choi et al.,[23] the following equations are proposed where Equation ( 4 ) describes the amount of drug within the brain tissue and Equation ( 5 ) describes the amount of drug in the vascular space surrounding the tissue: (4) VCNS*dCCNS,T/dt=PSA×CA−CCNS,V−sfABCB1,CNS×VCNS×VMAXABCB1×CCNS,V/KMABCB1+CCNS,V (5) VBB*dCBB/dt=QCNS*CA−CV−PSA×CA−CV,CNA+sfCNS×VCNS×VMAXABCB1×CCNS,V/KMABCB1+CCNS,V where VCNS is the volume of the brain tissue, VBB is the volume consisting of brain blood, CCNS,T is the concentration of drug in the brain tissue, PSA is the permeability surface area product, sfABCB1,CNS is the relative ABCB1 expression in brain tissue, and CBB is the concentration of drug in the brain blood. VCNA and VBB were set to 97% and 3% of total brain volume, respectively.[37] […] The parameter optimization method was conducted as described previously with nonlinear least squares regression. […] The corresponding Vmax,ABCB1 value was optimized to in vivo canine PK data. […]

[5] = VBL PK study in wild‐type and Mdr1a/b(−/−) mice, observed serum and tissue data; conditions: female, mouse, iv, 2 mg/kg; for half-life: in vivo, 2 mg/kg IV, Obs
Method: Mouse protocols were approved by the Institutional Animal Care and Use Committee at Colorado State University. Two strains of mice were used: FVB female mice and Mdr1a/b (−/−) (knock‐out, KO) female mice in a FVB background (Taconic Biosciences, Inc) for a total of 15 mice per strain with three mice per time point. […] Whole blood and tissues were harvested throughout a time range of 0.08 to 6 h. Whole blood was collected with heparinized needles and transferred to a microcentrifuge tube and was spun at 1200xg for 10 min at 4°C. The resulting serum and tissues were flash‐frozen in liquid nitrogen and stored at −80°C until ready for analysis.
Serum samples (200μl) were spiked with 50 ng (10 μl of 5 μg/ml solution) of vincristine as an internal standard. […] During vortex mixing, solid‐phase extraction cartridges were prepared by the addition of 400 μl methanol followed by 400 μl milli‐Q water. Loaded samples were then washed twice with 5% methanol. […] Samples were then evaporated to dryness using a Savant AES 1000 SpeedVac. Samples were then resuspended in 100 μl of diluent and transferred to autosampler vials with glass inserts for injection onto the HPLC system.
Positive ion electrospray ionization (ESI) mass spectra were obtained with a MDS Sciex 3200 Q‐TRAP triple quadrupole mass spectrometer (Applied Biosystems Inc) with a turbo ionspray source interfaced to a Shimadzu HPLC system and an HTC‐PAL autosampler (Leap Technologies). Samples were chromatographed with an Agilent ZORBAX Rx/SB‐C 8 (4.6 × 75 mm) column (Agilent Technologies) protected by a C 18 guard cartridge, 4.0 mm by 2.0 mm (Phenomenex). An LC gradient was employed with mobile phase A consisting of 10 mM ammonium acetate pH 4.0 and mobile phase B consisting of acetonitrile. Chromatographic resolution was obtained by holding mobile phase B steady at 50% from 0 to 0.01 min, increasing linearly from 50% to […] from 0.01 to 3.0 min, holding steady at 99% from 3.0 to 4.5 min, decreasing linearly from 99% to 50% from 4.5 to 5.0 min, followed by equilibration at 50% from 5.0 to 6.0 min. The LC flow rate was 0.75 ml/min and the sample injection volume was 10 μl. The analysis run time was 6.0 min.
Analyst v1.5.1 software (Applied Biosystems) was used for peak area integration.
Plasma and tissue concentrations were measured at time intervals between […] and 6 h post‐drug administration. The mouse PBPK model for Mdr1a/b (−/−) mice and wild‐type mice was developed using SimBiology, MATLAB with a focus on the following tissues: plasma, brain, bone marrow, liver, gut, and kidney. The primary drivers of vinca disposition including tubulin binding, ABCB1‐mediated transport, and elimination via metabolism, biliary clearance, and glomerular filtration created the foundation of the model. Metabolism values were either derived experimentally or sourced from literature, while tissue partitioning and Michaelis–Menten parameters for ABCB1 transport and biliary excretion were optimized using plasma and tissue PK data.

[6] = test system: dog liver microsomes; conditions: dog and human models, fit of digitized data, cited from earlier work
[7] = VBL PK study in dogs (clinical trial, serum); conditions: dog, iv, 2.5 mg/m^2 IV bolus, observed; for AUC(0-t): 2.5 mg/m2, AUCt, dogs, 0 to 24 h; for half-life: 2.5 mg/m2, t1/2, dogs
[8] = test system: plasma proteins, primarily alpha‐1 acid glycoprotein; conditions: cited from earlier work
[9] = optimized to mouse mdr1a/b (−/−) data
[10] = concomitant prednisone/omeprazole/diphenhydramine (POD)

With `CC[C@]1(O)C[C@@H]2CN(CCc3c([nH]c4ccccc34)[C@@](C(=O)OC)(c3cc4c(cc3OC)N(C)[C@H]3[C@@](O)(C(=O)OC)[C@H](OC(C)=O)[C@]5(CC)C=CCN6CC[C@]43[C@@H]65)C2)C1` [VBL, Vinblastine] the Km at 5 min [1] was 11.6 µM, the “Partition coefficient PCblood” value [2] was 1.0 and the “Partition coefficient PCBM” value ([2]; bone marrow, optimized to mouse mdr1a/b (−/−) data) was 1.0. The “Partition coefficient PCCNS” value [2, 9] was 1.21, the “Partition coefficient PCGut” value [2, 9] was 1.08 and the “Partition coefficient PCKidney” value [2, 9] was 3.73. For the same compound, the “Partition coefficient PCLiver” value [2, 9] was 2.26, the KmABCB1 ([3]; based on ATPase activity) was 5760 nmol/L and the Km ([3]; set equivalent to ABCB1 value, read-out: Kmbil (biliary transport Km)) was 5.76 µM. The VmABCB1 ([4]; optimized to in vivo canine PK data) was 64.54 nmol/L/h, the “Vmbil (biliary transport Vmax)” value ([4]; set equivalent to ABCB1 value) was 64.54 nmol/L/h and the AUC ([5]; FVB (wild-type), brain) was 0.109 µM·h. It also gave an AUC ([5]; FVB (wild-type), gut) of 3.47 µM·h, a half-life ([5]; FVB (wild-type), t1/2, wild‐type mice, brain) of 236 min and a half-life ([5]; FVB (wild-type), t1/2, wild‐type mice, gut) of 76.2 min. The half-life ([5]; FVB (wild-type), t1/2, wild‐type mice, kidney) was 93.6 min, the half-life ([5]; FVB (wild-type), t1/2, wild‐type mice, liver) was 79.2 min and the half-life ([5]; FVB (wild-type), t1/2, wild‐type mice, serum) was 96 min. For the same compound, the AUC ([5]; FVB (wild-type), kidney) was 12.6 µM·h, the AUC ([5]; FVB (wild-type), liver) was 4.21 µM·h and the AUC ([5]; FVB (wild-type), serum) was 0.181 µM·h. The AUC ([5]; FVB, bone marrow) was 2.98 µM·h, the AUC ([5]; Mdr1a/b (−/−) knock-out in FVB background, bone marrow) was 2.71 µM·h and the half-life ([5]; Mdr1a/b (−/−) knock-out in FVB background, t1/2, Mdr1a/b (−/−) mice, bone marrow) was 350 min. It also gave a half-life ([5]; Mdr1a/b (−/−) knock-out in FVB background, t1/2, Mdr1a/b (−/−) mice, liver) of 108 min, an AUC ([5]; Mdr1a/b (−/−) knock-out in FVB background, liver) of 4.27 µM·h and an AUC ([5]; Mdr1a/b (−/−) knock-out, FVB background, brain) of 1.4 µM·h. It also gave an AUC ([5]; Mdr1a/b (−/−) knock-out, FVB background, gut) of 5.9 µM·h, a half-life ([5]; Mdr1a/b (−/−) knock-out, FVB background, t1/2, Mdr1a/b (−/−) mice, gut) of 232 min and a half-life ([5]; Mdr1a/b (−/−) knock-out, FVB background, t1/2, Mdr1a/b (−/−) mice, kidney) of 107 min. The half-life ([5]; Mdr1a/b (−/−) knock-out, FVB background, t1/2, Mdr1a/b (−/−) mice, serum) was 97.2 min, the AUC ([5]; Mdr1a/b (−/−) knock-out, FVB background, serum) was 0.215 µM·h and the “Vmmet (metabolism Vmax)” value ([6]; extrapolated using 55 mg protein/g liver) was 189.6 µmol/L/h. For the same compound, the Km ([6]; read-out: Kmmet (metabolism Km)) was 9.53 µM, the AUC(0-t) ([7]; concomitant prednisolone only) was 0.186 µM·h and the AUC(0-t) [7, 10] was 0.0477 µM·h. For the same compound, the half-life ([7]; all patients regardless of concomitant treatment) was 1110 min, the half-life ([7]; concomitant prednisolone only) was 941 min and the half-life [7, 10] was 309 min. The “percentage of drug bound to plasma proteins” value [8] was 48–99%, the “Protein binding (range)” value ([8]; value used in dog model) was 48–99% and the “Protein binding (range)” value ([8]; value used in human model) was 48–99%. For the same compound, the “Protein binding (range)” value ([8]; value used in mouse model) was 48–99%.
